According to US20080299123A1, “TREATMENT OF CHEMOTHERAPY- OR RADIOTHERAPY-RESISTANT TUMORS” (Deutsches Krebsforschungszentrum Stiftung des offentlichen …, priority 2006, published 2008):

System: cathepsin B and CRABPII transcription
Assay: L1-dependent gene regulation by qPCR in HEK293-hL1wt cells
Type: cell-based, human
Conditions: preincubation 96 h
Protocol: (A) Analysis of L1-32 cleavage by γ-secretase. Cells were treated for 48 h at 37° C. with presenilin inhibitor IX (DAPT) or for control with DMSO. Isolated membranes were incubated for 2 h at 37° C. and then separated into pellet or supernatant (SN) fractions by ultracentrifugation. Lanes 1 to 2 show cells treated with DMSO (vehicle). Lanes 3 and 4 show cells preincubated with DAPT. (B) SKOV3ip cells were treated with DAPT either in the presence or absence of the metalloprotease inhibitor TAPI-0 for 24 hr. Cells were lysed in BOG lysis buffer and analyzed by Western blot analysis. The cell supernatant was analyzed for soluble L1 using mAb L1-11A and the cell lysate was examined for L1-32 using peytL1. (C) HEK293 or HEK293-hL1wt cells were treated with DMSO, DAPT, TAPI-0 or both inhibitors for 96 h. mRNA was transcribed to cDNA and analyzed by qPCR for the genes CRABPII and cathepsin B. (D) Analysis of ERK phosphorylation in SKOV3ip cells after treatment with the indicated compounds.
We next investigated whether L1-mediated gene regulation was dependent on L1-processing, by carrying out inhibition experiments. […]
mRNA was isolated using the Quiagen RNAeasy mini kit (Quiagen Hilden, Germany). […] After exposing of the hybridized membranes, the PhosphorImager screens were scanned (Fuji FLA-3000, 100 μm resolution, Fuji BAS-reader software). […]

`CC(C)C[C@H](CC(=O)NO)C(=O)N[C@@H](Cc1ccc2ccccc2c1)C(=O)N[C@@H](C)C(N)=O` [TAPI-0] was tested, and the “L1-dependent regulation of transcription for cathepsin B and CRABPII” value was “blocked”.
